In BindingDB's records for aid1799744 (Csar, 2012):

Biological target: Mitogen-activated protein kinase 1 (Homo sapiens, UniProt P28482)
Test: Assay 1

Chain of Mitogen-activated protein kinase 1 (P28482 whole entry): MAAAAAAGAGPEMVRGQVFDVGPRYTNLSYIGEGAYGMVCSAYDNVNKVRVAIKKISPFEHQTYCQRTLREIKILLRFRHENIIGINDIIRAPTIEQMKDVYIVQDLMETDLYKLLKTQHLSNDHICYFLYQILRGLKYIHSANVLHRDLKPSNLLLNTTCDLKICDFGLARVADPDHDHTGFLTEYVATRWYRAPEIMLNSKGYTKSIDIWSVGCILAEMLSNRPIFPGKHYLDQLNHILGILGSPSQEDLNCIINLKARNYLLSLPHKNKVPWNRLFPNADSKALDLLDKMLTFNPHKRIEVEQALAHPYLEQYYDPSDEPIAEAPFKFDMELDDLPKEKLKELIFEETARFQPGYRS

| SMILES | Ki |
| --- | --- |
| Cc1cnc(N)nc1-c1cc(C(=O)NCc2ccc(F)c(Cl)c2)n(Cc2ccccc2)c1 [erk000317] | 11000 nM |
| CCCONc1ncc(C)c(-c2c[nH]c(C(=O)N[C@H](CO)c3cccc(C)c3)c2)n1 [erk000614] | 5 nM |
| Cc1cnc(NC2CCNCC2)nc1-c1c[nH]c(C(=O)N[C@H](CO)c2cccc(Cl)c2)c1 [erk000623] | 15 nM |
| CCNc1ncc(C)c(-c2c[nH]c(C(=O)N[C@@H](CO)c3ccccc3)c2)n1 [erk000048] | 12900 nM |
| COc1cccc(Nc2ncc(C)c(-c3c[nH]c(C(=O)N[C@H](CO)c4ccccc4)c3)n2)c1C [erk000531] | 79 nM |
| Cc1cnc(NCC2CCOCC2)nc1-c1c[nH]c(C(=O)N[C@H](CO)c2cccc(Cl)c2)c1 [erk000639] | 17 nM |
| CCCONc1ncc(C)c(-c2c[nH]c(C(=O)N[C@H](CO)c3cccc(Cl)c3)c2)n1 [erk000615] | 4 nM |
| Cc1cnc(NC2CCC(C)CC2)nc1-c1c[nH]c(C(=O)N[C@H](CO)c2ccccc2)c1 (stereo not given in full) [erk000553] | 6 nM |
| COC[C@H](C)Nc1ncc(C)c(-c2c[nH]c(C(=O)N[C@H](CO)c3ccccc3)c2)n1 [erk000548] | 24 nM |
| CNc1ncc(C)c(-c2c[nH]c(C(=O)NCc3ccc(F)c(F)c3)c2)n1 [erk000056] | 3720 nM |
| Cc1cnc(Nc2ccccn2)nc1-c1c[nH]c(C(=O)N[C@H](CO)c2ccccc2)c1 [erk000517] | 0.4 nM |
| Cc1cnc(N)nc1-c1c[nH]c(C(=O)NCc2cccc(Cl)c2)c1 [erk000303] | 81 nM |
| CCNc1nccc(-c2c[nH]c(C(=O)N[C@H](CO)c3ccccc3)c2)n1 [erk000068] | 100 nM |
| CCOP(=O)(OCC)OC[C@H](CC)Nc1ncc(C)c(-c2c[nH]c(C(=O)N[C@H](COP(=O)(OCC)OCC)c3cccc(Cl)c3)c2)n1 [erk000676] | 1070 nM |
| CC[C@@H](CO)Nc1ncc(Cl)c(N2CCN(C(=O)N[C@H](CO)c3cccc(Cl)c3)CC2)n1 [erk000711] | 38 nM |
| CCN(CC)CCOc1ccc(Nc2ncc3cc(-c4c(Cl)cccc4Cl)c(=O)n(C)c3n2)cc1 [erk000225] | 174 nM |
| Cc1cnc(NN2CCCCC2)nc1-c1c[nH]c(C(=O)N[C@H](CO)c2ccccc2)c1 [erk000587] | 1 nM |
| CC[C@@H](COC(=O)[C@H](C)N)Nc1ncc(C)c(-c2c[nH]c(C(=O)N[C@H](COC(=O)[C@H](C)N)c3cccc(Cl)c3)c2)n1 [erk000717] | 38 nM |
| Cc1cnc(Nc2ccccc2)nc1-c1c[nH]c(C(=O)NCc2ccc(F)c(Cl)c2)c1 [erk000398] | 25 nM |
| CCN(CC)CCNc1ncc(C)c(-c2c[nH]c(C(=O)NCc3ccc(F)c(F)c3)c2)n1 [erk000364] | 3980 nM |
| O=c1[nH][nH]c2cc(Nc3ccc([N+](=O)[O-])c(Nc4cc(C5CC5)[nH]n4)n3)ccc12 [erk000662] | 10 nM |
| Cc1cnc(NN(C)C)nc1-c1c[nH]c(C(=O)N[C@H](CO)c2ccccc2)c1 [erk000505] | 7 nM |
| Cc1cnc(NC2CCCC2)nc1-c1c[nH]c(C(=O)N[C@H](CO)c2cccc(Cl)c2)c1 [erk000644] | 2 nM |
| Fc1cccc(-c2cnoc2-c2c[nH]c3ncc(-c4ccncc4)cc23)c1F [erk000712] | 191 nM |
| CCNc1ncc(C)c(-c2c[nH]c(C(=O)NCc3cccc(O)c3)c2)n1 [erk000484] | 68 nM |

| SMILES | Ki |
| --- | --- |
| Cc1cnc(N[C@H]2CCC[C@@H]2OCc2ccccc2)nc1-c1c[nH]c(C(=O)N[C@H](CO)c2cccc(Cl)c2)c1 [erk000609] | 46 nM |
| Cc1cnc(N)nc1-c1c[nH]c(C(=O)NCc2cccc(C(F)(F)F)c2)c1 [erk000043] | 562 nM |
| CCc1cnc(N)nc1-c1c[nH]c(C(=O)NCc2cccc3ccccc23)c1 [erk000070] | 1100 nM |
| CC[C@@H](CO)Nc1cc(-c2c[nH]c(C(=O)N[C@H](CO)c3cccc(Cl)c3)c2)ncn1 [erk000673] | 18 nM |
| Cc1cnc(NC[C@H]2CCCO2)nc1-c1c[nH]c(C(=O)N[C@H](CO)c2ccccc2)c1 [erk000497] | 14 nM |
| Cc1cnc(NCC[C@@H]2CCCN2C)nc1-c1c[nH]c(C(=O)N[C@H](CO)c2ccccc2)c1 [erk000520] | 537 nM |
| Cc1cnc(NCc2ccccn2)nc1-c1c[nH]c(C(=O)N[C@H](CO)c2ccccc2)c1 [erk000580] | 1120 nM |
| Cc1cnc(N[C@H]2CCC[C@H]2OCc2ccccc2)nc1-c1c[nH]c(C(=O)N[C@H](CO)c2cccc(Cl)c2)c1 [erk000608] | 17 nM |
| Cc1cnc(N[C@H](C)CO)nc1-c1c[nH]c(C(=O)N[C@H](CO)c2ccccc2)c1 [erk000462] | 14 nM |
| CC1CCN(c2nc(Nc3cc(C4CC4)n[nH]3)c3ccccc3n2)CC1 [erk000284] | 65 nM |
| Cc1cnc(NC(C)C)nc1-c1c[nH]c(C(=O)N[C@H](CO)c2cccc(F)c2)c1 [erk000536] | 15 nM |
| CC(=O)NCCNc1ncc(C)c(-c2c[nH]c(C(=O)N[C@H](CO)c3ccccc3)c2)n1 [erk000560] | 58 nM |
| Cc1cnc(N[C@H](CO)C(C)C)nc1-c1c[nH]c(C(=O)N[C@H](CO)c2ccccc2)c1 [erk000488] | 14 nM |
| Cc1cnc(NC2CCCCC2)nc1-c1c[nH]c(C(=O)N[C@H](CO)c2cccc(Cl)c2)c1 [erk000643] | 4 nM |
| Cc1cnc(NC2CCOCC2)nc1-c1c[nH]c(C(=O)N[C@H](CO)c2cccc(Cl)c2)c1 [erk000584] | 8 nM |
| O=C(NCc1ccc2c(c1)CCO2)c1cc(-c2n[nH]cc2-c2cccc(Cl)c2)c[nH]1 [erk000232] | 21 nM |
| COc1cccc(Nc2ncc(C)c(-c3c[nH]c(C(=O)N[C@H](CO)c4ccccc4)c3)n2)c1OC [erk000616] | 2 nM |
| Cc1cnc(NNS(C)(=O)=O)nc1-c1c[nH]c(C(=O)N[C@H](CO)c2cccc(Cl)c2)c1 [erk000661] | 3 nM |
| CCNc1ncc(C)c(-c2c[nH]c(C(=O)NCc3ccc(F)c(F)c3)c2)n1 [erk000038] | 240 nM |
| NCc1ccc(-c2cn[nH]c2-c2c[nH]c(C(=O)NCc3ccc4c(c3)CCO4)c2)cc1C(F)(F)F [erk000282] | 191 nM |
| Cc1cnc(Nc2ccccc2)nc1-c1c[nH]c(C(=O)N[C@H](COC(=O)CN)c2ccccc2)c1 [erk000645] | 55 nM |
| CC[C@@H](CO)Nc1ncc(C)c(-c2cc(C(=O)N[C@H](CO)c3cccc(Cl)c3)n(COC)c2)n1 [erk000694] | 5 nM |
| Cc1cnc(Nc2ccccc2)nc1-c1c[nH]c(C(=O)N[C@@H](CO)c2ccc(F)c(Cl)c2)c1 [erk000397] | 4 nM |
| Cc1cnc(Nc2ccc(F)cc2F)nc1-c1c[nH]c(C(=O)N[C@H](CO)c2ccccc2)c1 [erk000658] | 2 nM |
| Cc1cnc(Nn2cccc2)nc1-c1c[nH]c(C(=O)N[C@H](CO)c2ccccc2)c1 [erk000573] | 9 nM |

| SMILES | Ki |
| --- | --- |
| CCNc1ncc(C)c(-c2c[nH]c(C(=O)N[C@H](CO)c3cccc(C(F)(F)F)c3)c2)n1 [erk000491] | 13 nM |
| Cc1cnc(N)nc1-c1c[nH]c(C(=O)NCc2ccccc2)c1 [erk000103] | 832 nM |
| Cc1cnc(NOCc2ccccc2)nc1-c1c[nH]c(C(=O)N[C@H](CO)c2ccccc2)c1 [erk000649] | 191 nM |
| Cc1cnc(NC[C@H](C)O)nc1-c1c[nH]c(C(=O)N[C@H](CO)c2ccccc2)c1 [erk000464] | 37 nM |
| CCNc1ncc(CC)c(-c2c[nH]c(C(=O)N[C@H](CO)c3ccccc3)c2)n1 [erk000060] | 120 nM |
| CSCC[C@@H](CO)Nc1ncc(C)c(-c2c[nH]c(C(=O)N[C@H](CO)c3ccccc3)c2)n1 [erk000552] | 5 nM |
| CNc1ncc(C)c(-c2c[nH]c(C(=O)N[C@@H](CO)c3ccc(F)c(Cl)c3)c2)n1 [erk000396] | 68 nM |
| Cc1cnc(NC2(CO)CCCC2)nc1-c1c[nH]c(C(=O)N[C@H](CO)c2ccccc2)c1 [erk000513] | 51 nM |
| Cc1cnc(N)nc1-c1c[nH]c(C(=O)NCc2cccc3ccccc23)c1 [erk000037] | 603 nM |
| Cc1cnc(Nc2cccc(O)c2C)nc1-c1c[nH]c(C(=O)N[C@H](CO)c2ccccc2)c1 [erk000527] | 3 nM |
| O=C(N[C@H](CO)c1ccccc1)c1cc(-c2n[nH]cc2-c2cccc(C(F)(F)F)c2)c[nH]1 [erk000184] | 83 nM |
| Cc1cnc(Nc2c(F)cccc2F)nc1-c1c[nH]c(C(=O)N[C@H](CO)c2cccc(Cl)c2)c1 [erk000593] | 14 nM |
| Cc1cnc(NOCC2CC2)nc1-c1c[nH]c(C(=O)N[C@H](CO)c2ccccc2)c1 [erk000500] | 26 nM |
| Cc1cccnc1Nc1ncc(C)c(-c2c[nH]c(C(=O)N[C@H](CO)c3ccccc3)c2)n1 [erk000521] | 91 nM |
| Cc1cccc([C@@H](CO)NC(=O)c2cc(-c3nc(Nc4cccc(F)c4C)ncc3C)c[nH]2)c1 [erk000601] | 8 nM |
| Cc1cnc(N)nc1-c1cc(C(=O)NCc2ccc(F)c(F)c2)n(C)c1 [erk000327] | 3470 nM |
| CNc1ncc(C)c(-c2c[nH]c(C(=O)NCc3cccc4ccccc34)c2)n1 [erk000036] | 58 nM |
| Cc1cnc(Nc2cc(Cl)cc(Cl)c2)nc1-c1c[nH]c(C(=O)N[C@H](CO)c2ccccc2)c1 [erk000559] | 3 nM |
| Cc1cnc(Nc2cccc(C)c2C)nc1-c1c[nH]c(C(=O)N[C@H](CO)c2cccc(Cl)c2)c1 [erk000526] | 1 nM |
| Cc1cnc(Nc2ccc(OCc3ccccc3)cc2)nc1-c1c[nH]c(C(=O)N[C@H](CO)c2ccccc2)c1 [erk000442] | 3 nM |
| CCn1cc(-c2nc(N[C@@H](C)CO)ncc2C)cc1C(=O)N[C@H](CO)c1cccc(Cl)c1 [erk000679] | 5 nM |
| CCN(C)C(=O)c1cc(-c2[nH]ncc2-c2ccc(F)c(Cl)c2)c[nH]1 [erk000142] | 251 nM |
| CNc1ncc(C)c(-c2c[nH]c(C(=O)N[C@H](CO)c3ccccc3)c2)n1 [erk000046] | 59 nM |
| Cc1ccc(Nc2ncc(C)c(-c3c[nH]c(C(=O)NCc4cccc(C(F)(F)F)c4)c3)n2)cc1C [erk000440] | 28 nM |
| CC[C@@H](COC(=O)[C@@H](N)C(C)C)Nc1ncc(C)c(-c2c[nH]c(C(=O)N[C@H](COC(=O)[C@@H](N)C(C)C)c3cccc(Cl)c3)c2)n1 [erk000685] | 759 nM |
